Results as given in patent publication US20080274892A1, “Novel Haloalkylsulfonanilide Derivative, Herbicide, and Method of Use Thereof” (priority 2005, published 2008).

What was measured:
[1] = tested on: bulrush; assay: Test Example 2: herbicidal efficacy on rice paddy weeds post-emergence; format: in vivo, Scirpus juncoides; settings: post-emergence, one leaf stage, 21 days after treatment
[2] = tested on: barnyard glass; assay: as above; format: in vivo, Echinochloa crus-galli; settings: post-emergence, one leaf stage, 21 days after treatment
Outline: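 Efficacy on paddy weeds was scored on a 0 to 4 growth-inhibition scale: 4 for 90%-100%, 3 for 70%-89%, 2 for 40%-69%, 1 for 1%-39% and 0 for 0%. Barnyard glass was grown in clay loam in 75 cm^2 pots under 5 cm of water in a hot house. It was compared with untreated pots 21 days after treatment.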

[3] = tested on: paddy rice plant (cultivar: Nihonbare); assay: Test Example 3: phytotoxicity test for transplanted paddy rice plant; format: in vivo; settings: transplanted rice, 21 days after treatment
Outline: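 Clay loam soil was placed in a 75 cm^2 plastic pot and flooded to a water depth of 5 cm. Two Nihonbare paddy rice plants at the two-leaf stage were transplanted 1 cm deep and grown in a hot house. After treatment, pots stayed in the hot house for 21 days, and phytotoxicity was then graded against an untreated control.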

[4] = tested on: false pimpernel; assay: Test Example 2: herbicidal efficacy on rice paddy weeds post-emergence; format: in vivo, Lindernia pyxidaria; settings: post-emergence, one leaf stage, 21 days after treatment
[5] = tested on: bulrush; assay: Test Example 1: herbicidal efficacy on rice paddy weeds pre-emergence; format: in vivo, Scirpus juncoides; settings: 21 days
[6] = tested on: false pimpernel; assay: as above; format: in vivo, Lindernia pyxidaria; settings: 21 days
[7] = dosage 1000 g/ha, treated 5 days after transplantation

CC1(COc2ccccc2)CN(Cc2ccccc2NS(=O)(=O)C(F)(F)F)C(=O)O1 (stereo not drawn) [Compound 1-155]
Bulrush post (herbicidal efficacy grade) ([1]; dosage 300 g/ha): 4 (90%-100% of herbicidal efficacy or phytotoxicity) | Burnyard grass post (herbicidal efficacy grade) ([2]; dosage 300 g/ha): 1 (1%-39% of herbicidal efficacy or phytotoxicity) | Phytotoxicity to paddy rice ([3]; dosage 300 g/ha): 1 (1%-39% of herbicidal efficacy or phytotoxicity) | False pimpernel post (herbicidal efficacy grade) ([4]; dosage 300 g/ha): 4 (90%-100% of herbicidal efficacy or phytotoxicity) | Bulrush pre (herbicidal efficacy grade) ([5]; dosage 300 g/ha): 4 (90%-100% of herbicidal efficacy or phytotoxicity) | False pimpernel pre (herbicidal efficacy grade) ([6]; dosage 300 g/ha): 4 (90%-100% of herbicidal efficacy or phytotoxicity)

CC(C)COC(=O)N(c1ccccc1CN1CC(C)(COc2ccccc2)OC1=O)S(=O)(=O)C(F)(F)F (stereo not drawn) [Compound 1-158]
Bulrush post (herbicidal efficacy grade) ([1]; dosage 1000 g/ha): 4 (90%-100% of herbicidal efficacy or phytotoxicity) | Burnyard grass post (herbicidal efficacy grade) ([2]; dosage 1000 g/ha): 4 (90%-100% of herbicidal efficacy or phytotoxicity) | Phytotoxicity to paddy rice [3, 7]: 1 (1%-39% of herbicidal efficacy or phytotoxicity) | False pimpernel post (herbicidal efficacy grade) ([4]; dosage 1000 g/ha): 4 (90%-100% of herbicidal efficacy or phytotoxicity) | Bulrush pre (herbicidal efficacy grade) ([5]; dosage 1000 g/ha): 4 (90%-100% of herbicidal efficacy or phytotoxicity) | False pimpernel pre (herbicidal efficacy grade) ([6]; dosage 1000 g/ha): 4 (90%-100% of herbicidal efficacy or phytotoxicity)

COC(=O)N(c1ccccc1CN1CC(C)(COc2ccccc2)OC1=O)S(=O)(=O)C(F)(F)F (stereo not drawn) [Compound 1-159]
Bulrush post (herbicidal efficacy grade) ([1]; dosage 1000 g/ha): 4 (90%-100% of herbicidal efficacy or phytotoxicity) | Burnyard grass post (herbicidal efficacy grade) ([2]; dosage 1000 g/ha): 4 (90%-100% of herbicidal efficacy or phytotoxicity) | Phytotoxicity to paddy rice [3, 7]: 1 (1%-39% of herbicidal efficacy or phytotoxicity) | False pimpernel post (herbicidal efficacy grade) ([4]; dosage 1000 g/ha): 4 (90%-100% of herbicidal efficacy or phytotoxicity) | Bulrush pre (herbicidal efficacy grade) ([5]; dosage 1000 g/ha): 4 (90%-100% of herbicidal efficacy or phytotoxicity) | False pimpernel pre (herbicidal efficacy grade) ([6]; dosage 1000 g/ha): 4 (90%-100% of herbicidal efficacy or phytotoxicity)

CC1CCCC12CN(Cc1ccccc1NS(=O)(=O)C(F)(F)F)C(=O)O2 (stereo not drawn) [Compound 1-160]
Bulrush post (herbicidal efficacy grade) ([1]; dosage 300 g/ha): 4 (90%-100% of herbicidal efficacy or phytotoxicity) | Burnyard grass post (herbicidal efficacy grade) ([2]; dosage 300 g/ha): 4 (90%-100% of herbicidal efficacy or phytotoxicity) | Phytotoxicity to paddy rice ([3]; dosage 300 g/ha): 1 (1%-39% of herbicidal efficacy or phytotoxicity) | False pimpernel post (herbicidal efficacy grade) ([4]; dosage 300 g/ha): 4 (90%-100% of herbicidal efficacy or phytotoxicity) | Bulrush pre (herbicidal efficacy grade) ([5]; dosage 300 g/ha): 4 (90%-100% of herbicidal efficacy or phytotoxicity) | False pimpernel pre (herbicidal efficacy grade) ([6]; dosage 300 g/ha): 4 (90%-100% of herbicidal efficacy or phytotoxicity)

CC(C)COC(=O)N(c1ccccc1CN1CC2(CCCC2C)OC1=O)S(=O)(=O)C(F)(F)F (stereo not drawn) [Compound 1-161]
Bulrush post (herbicidal efficacy grade) ([1]; dosage 1000 g/ha): 4 (90%-100% of herbicidal efficacy or phytotoxicity) | Burnyard grass post (herbicidal efficacy grade) ([2]; dosage 1000 g/ha): 4 (90%-100% of herbicidal efficacy or phytotoxicity) | Phytotoxicity to paddy rice [3, 7]: 1 (1%-39% of herbicidal efficacy or phytotoxicity) | False pimpernel post (herbicidal efficacy grade) ([4]; dosage 1000 g/ha): 4 (90%-100% of herbicidal efficacy or phytotoxicity) | Bulrush pre (herbicidal efficacy grade) ([5]; dosage 1000 g/ha): 4 (90%-100% of herbicidal efficacy or phytotoxicity) | False pimpernel pre (herbicidal efficacy grade) ([6]; dosage 1000 g/ha): 4 (90%-100% of herbicidal efficacy or phytotoxicity)

COC(=O)N(c1ccccc1CN1CC2(CCCC2C)OC1=O)S(=O)(=O)C(F)(F)F (stereo not drawn) [Compound 1-162]
Bulrush post (herbicidal efficacy grade) ([1]; dosage 1000 g/ha): 4 (90%-100% of herbicidal efficacy or phytotoxicity) | Burnyard grass post (herbicidal efficacy grade) ([2]; dosage 1000 g/ha): 4 (90%-100% of herbicidal efficacy or phytotoxicity) | Phytotoxicity to paddy rice [3, 7]: 1 (1%-39% of herbicidal efficacy or phytotoxicity) | False pimpernel post (herbicidal efficacy grade) ([4]; dosage 1000 g/ha): 4 (90%-100% of herbicidal efficacy or phytotoxicity) | Bulrush pre (herbicidal efficacy grade) ([5]; dosage 1000 g/ha): 4 (90%-100% of herbicidal efficacy or phytotoxicity) | False pimpernel pre (herbicidal efficacy grade) ([6]; dosage 1000 g/ha): 4 (90%-100% of herbicidal efficacy or phytotoxicity)

CC(C)COC(=O)N(c1ccccc1CN1CC(C)(COCc2ccccc2)OC1=O)S(=O)(=O)C(F)(F)F (stereo not drawn) [Compound 1-174]
Bulrush post (herbicidal efficacy grade) ([1]; dosage 1000 g/ha): 4 (90%-100% of herbicidal efficacy or phytotoxicity) | Burnyard grass post (herbicidal efficacy grade) ([2]; dosage 1000 g/ha): 4 (90%-100% of herbicidal efficacy or phytotoxicity) | Phytotoxicity to paddy rice [3, 7]: 1 (1%-39% of herbicidal efficacy or phytotoxicity) | False pimpernel post (herbicidal efficacy grade) ([4]; dosage 1000 g/ha): 4 (90%-100% of herbicidal efficacy or phytotoxicity) | Bulrush pre (herbicidal efficacy grade) ([5]; dosage 1000 g/ha): 4 (90%-100% of herbicidal efficacy or phytotoxicity) | False pimpernel pre (herbicidal efficacy grade) ([6]; dosage 1000 g/ha): 4 (90%-100% of herbicidal efficacy or phytotoxicity)

COC(=O)N(c1ccccc1CN1CC(C)(COCc2ccccc2)OC1=O)S(=O)(=O)C(F)(F)F (stereo not drawn) [Compound 1-175]
Bulrush post (herbicidal efficacy grade) ([1]; dosage 1000 g/ha): 4 (90%-100% of herbicidal efficacy or phytotoxicity) | Burnyard grass post (herbicidal efficacy grade) ([2]; dosage 1000 g/ha): 4 (90%-100% of herbicidal efficacy or phytotoxicity) | Phytotoxicity to paddy rice [3, 7]: 1 (1%-39% of herbicidal efficacy or phytotoxicity) | False pimpernel post (herbicidal efficacy grade) ([4]; dosage 1000 g/ha): 4 (90%-100% of herbicidal efficacy or phytotoxicity) | Bulrush pre (herbicidal efficacy grade) ([5]; dosage 1000 g/ha): 4 (90%-100% of herbicidal efficacy or phytotoxicity) | False pimpernel pre (herbicidal efficacy grade) ([6]; dosage 1000 g/ha): 4 (90%-100% of herbicidal efficacy or phytotoxicity)

CC(C)COC(=O)N(c1ccccc1CN1CC(C)(C2OC2(C)C)OC1=O)S(=O)(=O)C(F)(F)F (stereo not drawn) [Compound 1-177]
Bulrush post (herbicidal efficacy grade) ([1]; dosage 1000 g/ha): 4 (90%-100% of herbicidal efficacy or phytotoxicity) | Burnyard grass post (herbicidal efficacy grade) ([2]; dosage 1000 g/ha): 4 (90%-100% of herbicidal efficacy or phytotoxicity) | Phytotoxicity to paddy rice [3, 7]: 1 (1%-39% of herbicidal efficacy or phytotoxicity) | False pimpernel post (herbicidal efficacy grade) ([4]; dosage 1000 g/ha): 4 (90%-100% of herbicidal efficacy or phytotoxicity) | Bulrush pre (herbicidal efficacy grade) ([5]; dosage 1000 g/ha): 4 (90%-100% of herbicidal efficacy or phytotoxicity) | False pimpernel pre (herbicidal efficacy grade) ([6]; dosage 1000 g/ha): 4 (90%-100% of herbicidal efficacy or phytotoxicity)

CCC1(C)CN(Cc2ccccc2NS(=O)(=O)C(F)(F)F)C(=S)O1 (stereo not drawn) [Compound 1-180]
Bulrush post (herbicidal efficacy grade) ([1]; dosage 1000 g/ha): 4 (90%-100% of herbicidal efficacy or phytotoxicity) | Burnyard grass post (herbicidal efficacy grade) ([2]; dosage 1000 g/ha): 4 (90%-100% of herbicidal efficacy or phytotoxicity) | Phytotoxicity to paddy rice [3, 7]: 2 (40%-69% of herbicidal efficacy or phytotoxicity) | False pimpernel post (herbicidal efficacy grade) ([4]; dosage 1000 g/ha): 4 (90%-100% of herbicidal efficacy or phytotoxicity) | Bulrush pre (herbicidal efficacy grade) ([5]; dosage 1000 g/ha): 4 (90%-100% of herbicidal efficacy or phytotoxicity) | False pimpernel pre (herbicidal efficacy grade) ([6]; dosage 1000 g/ha): 4 (90%-100% of herbicidal efficacy or phytotoxicity)

CCC1(C)CN(Cc2ccccc2N(C(=O)OC)S(=O)(=O)C(F)(F)F)C(=S)O1 (stereo not drawn) [Compound 1-182]
Bulrush post (herbicidal efficacy grade) ([1]; dosage 1000 g/ha): 4 (90%-100% of herbicidal efficacy or phytotoxicity) | Burnyard grass post (herbicidal efficacy grade) ([2]; dosage 1000 g/ha): 4 (90%-100% of herbicidal efficacy or phytotoxicity) | Phytotoxicity to paddy rice [3, 7]: 1 (1%-39% of herbicidal efficacy or phytotoxicity) | False pimpernel post (herbicidal efficacy grade) ([4]; dosage 1000 g/ha): 4 (90%-100% of herbicidal efficacy or phytotoxicity) | Bulrush pre (herbicidal efficacy grade) ([5]; dosage 1000 g/ha): 4 (90%-100% of herbicidal efficacy or phytotoxicity) | False pimpernel pre (herbicidal efficacy grade) ([6]; dosage 1000 g/ha): 4 (90%-100% of herbicidal efficacy or phytotoxicity)

CC(C)COC(=O)N(c1ccccc1CN1C(=O)SC(C)C1=O)S(=O)(=O)C(F)(F)F (stereo not drawn) [Compound 1-200]
Bulrush post (herbicidal efficacy grade) ([1]; dosage 1000 g/ha): 3 (70%-89% of herbicidal efficacy or phytotoxicity) | Burnyard grass post (herbicidal efficacy grade) ([2]; dosage 1000 g/ha): 1 (1%-39% of herbicidal efficacy or phytotoxicity) | Phytotoxicity to paddy rice [3, 7]: 0 (0% of herbicidal efficacy or phytotoxicity) | False pimpernel post (herbicidal efficacy grade) ([4]; dosage 1000 g/ha): 3 (70%-89% of herbicidal efficacy or phytotoxicity) | Bulrush pre (herbicidal efficacy grade) ([5]; dosage 1000 g/ha): 4 (90%-100% of herbicidal efficacy or phytotoxicity) | False pimpernel pre (herbicidal efficacy grade) ([6]; dosage 1000 g/ha): 2 (40%-69% of herbicidal efficacy or phytotoxicity)

COC1N(Cc2ccccc2NS(=O)(=O)C(F)(F)F)C(=O)OC1(C)C (stereo not drawn) [Compound No. 1-195, 4-methoxy-5,5-dimethyl-3-[2-(trifluoromethanesulfonylamino)benzyl]oxazolidin-2-one]
Bulrush post (herbicidal efficacy grade) ([1]; dosage 300 g/ha): 4 (90%-100% of herbicidal efficacy or phytotoxicity) | Burnyard grass post (herbicidal efficacy grade) ([2]; dosage 300 g/ha): 1 (1%-39% of herbicidal efficacy or phytotoxicity) | Phytotoxicity to paddy rice ([3]; dosage 300 g/ha): 2 (40%-69% of herbicidal efficacy or phytotoxicity) | False pimpernel post (herbicidal efficacy grade) ([4]; dosage 300 g/ha): 3 (70%-89% of herbicidal efficacy or phytotoxicity) | Bulrush pre (herbicidal efficacy grade) ([5]; dosage 300 g/ha): 4 (90%-100% of herbicidal efficacy or phytotoxicity) | False pimpernel pre (herbicidal efficacy grade) ([6]; dosage 300 g/ha): 1 (1%-39% of herbicidal efficacy or phytotoxicity)
